In article PMC4937655 (Journal of Drug Assessment, 2013):
“Also recorded” adds a separate entry of the source. Where two headings read alike, the source gives them in different places. Each block holds one compound with its values, some of them ahead of it.

Columns and labels:
platelet aggregation = system: platelet aggregation; design: method as in AstraZeneca, data on file; details: ref AstraZeneca, data on file; cited from earlier work
[1] = Ticagrelor-diltiazem interaction study: pharmacokinetic parameters of ticagrelor and AR-C124910XX; details: for Cmax: po
Experimental: (§1) Both studies were single-center, randomized, open-label studies with a two-period, in-patient, crossover design. For both studies, a low non-loading dose of ticagrelor (i.e., a single oral dose of 90 mg) was selected, so if an interaction occurred between ticagrelor and the CYP3A4 inhibitor, then the increase in ticagrelor plasma concentrations would minimize any safety issues. […] The approved dosing regimen of ticagrelor is 180 mg loading dose followed by 90 mg twice daily thereafter3,4.
(§2) Figure 1 depicts the overall study design for both studies. At the start of each study, volunteers were randomized to one of two treatments (A or B). After the washout period, volunteers received the alternate dosing regimen. On the scheduled day, ticagrelor was co-administered with the CYP3A4 inhibitor in the morning after fasting for ≥10 hours followed by a further fast for ≥4 hours. Water was permitted ad libitum throughout each period except for 2 hours before and after ticagrelor administration.
(§3) The limits of quantification (LOQ) for ticagrelor and AR-C124910XX were […], respectively28.
(§4) Plasma concentration–time data were used to calculate Cmax, time to maximum concentration (tmax), AUC, and the terminal elimination half-life (t½). The latter was calculated as 0.693/λz, where λz is the terminal phase elimination rate constant, derived by least-squares regression analysis of the plasma concentration–time data obtained over the terminal log-linear phase. AUC was calculated using the linear trapezoidal method and extrapolated to infinity. AR-C124910XX:ticagrelor ratios for Cmax and AUC were calculated.
(§5) Statistical analyses were conducted using SAS version 8 (SAS Institute, Cary, North Carolina, USA). Pharmacokinetic parameters were summarized by descriptive statistics. AUC and Cmax values for ticagrelor and AR-C124910XX were analyzed, following log-transformation, by analysis of variance with terms for treatment, period, and sequence, and the volunteer within sequence was included as a random effect. After exponentiation, geometric least square mean point estimates and 90% CIs for the ratio ticagrelor + CYP3A4 inhibitor/ticagrelor alone were calculated. The pre-specified limits for the 90% CI values indicating no interaction between ticagrelor and either CYP3A4 inhibitor were 0.7–1.43.

[2] = design: method as in PMID 20551239, PMID 20091161, PMID 20642549, PMID 16476694, PMID 17980251; details: cited from earlier work
[3] = design: method as in PMID 20091161; details: single oral dose of ticagrelor 100 mg; healthy volunteers n = 9; cited from earlier work
[4] = Ticagrelor-ketoconazole interaction study: pharmacokinetic parameters of ticagrelor and AR-C124910XX; details: for Cmax: po
Experimental: as §1, §2, §3, §4, §5

[5] = Effect of ticagrelor on diltiazem pharmacokinetic parameters; type: in vivo, human; details: for Tmax: human, plasma, read-out: Median tmax (range); for Effect of ticagrelor on pharmacokinetic parameters: in words
[6] = Safety and tolerability, diltiazem study; type: in vivo, human
Experimental: (§6) Safety and tolerability of ticagrelor alone and in the presence of diltiazem or ketoconazole were evaluated by assessment of adverse events (AEs), vital signs, electrocardiographic (ECG), physical examination, and laboratory parameters (clinical chemistry, hematology, and urinalysis) throughout the studies.

CYP3A [7] = details: cited from earlier work
[8] = Effect of ticagrelor on ketoconazole steady-state plasma concentrations; type: in vivo, human; details: for Plasma concentration, mean (% CV; range): ketoconazole 200 mg twice daily
Experimental: as §1, §3, §4

[9] = design: method as in PMID 19717846; details: ticagrelor + aspirin compared with clopidogrel + aspirin; patients with ACS; cited from earlier work
[10] = cited from earlier work
[11] = design: method as in PMID 16476694; details: 28 days, cited from earlier work
[12] = cited from earlier work; remark: listed apart in the source
CYP3A [13] = system: CYP3A; design: method as in PMID 21177984; details: cited from earlier work; for Inhibition of CYP3A activity in vitro: in words
P-glycoprotein = details: ref 18 (AstraZeneca, data on file); cited from earlier work
[14] = Safety and tolerability, ketoconazole study; type: in vivo, human
Experimental: as §6

[15] = single dose 900 mg, healthy volunteers n = 6
[16] = diltiazem co-administration vs ticagrelor alone
[17] = ticagrelor + diltiazem/ticagrelor alone
[18] = ketoconazole co-administration vs ticagrelor alone
[19] = ticagrelor + ketoconazole/ticagrelor alone

- Metabolite:parent AUC ratio ([1]; human, in vivo): 0.4 (39)
- Metabolite:parent Cmax ratio ([1]; human, in vivo): 0.3 (36)
- AUC ([1]; human, in vivo, 90 mg): 1630 (29) ng·h/mL
- Tmax ([1]; human, in vivo, 90 mg): 3.0 (2.0–4.0) h
- t½ ([1]; human, in vivo, 90 mg): 8.4 (1.3) h
- Cmax ([1]; human, in vivo): 173 (38) ng/mL
- Metabolite:parent AUC ratio ([4]; human, in vivo): 0.49 (24)
- Metabolite:parent Cmax ratio ([4]; human, in vivo): 0.32 (22)
- AUC ([4]; human, in vivo, 90 mg): 1769 (28) ng·h/mL
- Tmax ([4]; human, in vivo, 90 mg): 2.0 (2.0–4.0) h
- t½ ([4]; human, in vivo, 90 mg): 8.0 (6.3–16.7) h
- Cmax ([4]; human, in vivo): 207 (29) ng/mL
Compound: CCCSc1nc(N[C@@H]2C[C@H]2c2ccc(F)c(F)c2)c2nnn([C@@H]3C[C@H](O)[C@@H](O)[C@H]3O)c2n1 [AR-C124910XX]
- Potency in inhibiting platelet aggregation relative to ticagrelor (platelet aggregation): approximately equipotent
- Metabolite level as share of the levels of ticagrelor [2]: 30–40%
- AUC, mean ± standard deviation [3]: 1460 ± 408 ng·h/mL

- Tmax ([5]; diltiazem + ticagrelor): 10 h
- Tmax ([5]; diltiazem alone): 8 h
- Effect of ticagrelor on pharmacokinetic parameters [5]: no effect; also recorded: did not affect
- Effect of ticagrelor on pharmacokinetic parameters ([5]; listed as Diltiazem): not significantly affected
Compound: COc1ccc([C@@H]2Sc3ccccc3N(CCN(C)C)C(=O)[C@@H]2OC(C)=O)cc1 [diltiazem, Diltiazem]
- Abnormal ECG evaluations of first-degree atria-ventricular block ([6]; in vivo): two volunteers
- Systolic and diastolic blood pressure compared to baseline ([6]; in vivo): marginal decrease

Compound: CC(=O)N1CCN(c2ccc(OCC3COC(Cn4ccnc4)(c4ccc(Cl)cc4Cl)O3)cc2)CC1 (stereo not drawn) [ketoconazole]
- CYP3A substrate status (CYP3A [7]): substrates for CYP3A
- Classification as CYP3A inhibitor (CYP3A [7]): strong CYP3A inhibitor
- Effect of ticagrelor on steady-state plasma concentrations / pharmacokinetic parameters ([8]; in words): not significantly affected; also recorded: did not affect
- Plasma concentration, mean (% CV; range) ([8]; 12 hours post-dosing with ticagrelor on day 4): 1271 (84;334–4150) ng/mL
- Plasma concentration, mean (% CV; range) ([8]; pre-dosing on day 4, absence of ticagrelor): 1410 (73; 396–3540) ng/mL

Compound: CCCSc1nc(N[C@@H]2C[C@H]2c2ccc(F)c(F)c2)c2nnn([C@@H]3C[C@H](OCCO)[C@@H](O)[C@H]3O)c2n1 [Ticagrelor]
- Rate of myocardial infarction/stroke/death from vascular causes [9]: significantly reduced
- Maximum tolerated single dose ([10]; healthy volunteers): 900 mg
- AUC, mean [% CV] [10, 15]: 39,153 [38] ng·h/mL
- Bleeding-related AEs [10, 15]: no bleeding-related AEs
- Cmax, mean [% CV] [10, 15]: 5153 [42] ng/mL
- Increase in AUC [1, 16]: 174%
- Increase in Cmax [1, 16]: 69%
- Increase in half-life [1, 16]: 96%
- AUC ([1]; human, plasma, oral, 90 mg): 3700 ng·h/mL
- Tmax ([1]; human, plasma, oral, 90 mg): 2 h
- half-life ([1]; human, plasma, oral, 90 mg): 8.3 h
- Cmax ([1]; human, plasma, 90 mg): 519 ng/mL
- Effect of diltiazem on median tmax ([1]; in words): unaffected
- AUC GLS mean ratio: point estimate (90% CI) [1, 17]: 2.74 (2.40–3.13)
- Cmax GLS mean ratio: point estimate (90% CI) [1, 17]: 1.69 (1.47–1.95)
- Deaths or serious AEs ([6]; diltiazem study): No deaths or serious AEs
- Bleeding events ([6]; in vivo): No such events
- AEs reported ([6]; in vivo, po): No AEs
- Mean AUC ([11]; 100 mg ticagrelor twice daily, CV 45%): 5337 ng·h/mL
- Mean AUC ([11]; 200 mg ticagrelor twice daily, CV 39%): 15,104 ng·h/mL
- Increase in exposure ([11]; 200 mg vs 100 mg twice daily): 283%
- Total bleeding events: number of events (Kaplan–Meier event rates) ([12]; 90 mg twice daily, through week 4): 32 (9.8)
- Total bleeding events: number of events (Kaplan–Meier event rates) ([12]; 90 mg twice daily, through week 12): 34 (10.9)
- Mean AUC ± SD ([12]; 90 mg twice daily, week 4): 4762 ± 2443 ng·h/mL
- Total bleeding events: number of events (Kaplan–Meier event rates) ([12]; 180 mg twice daily, through week 4): 25 (8.0)
- Total bleeding events: number of events (Kaplan–Meier event rates) ([12]; 180 mg twice daily, through week 12): 33 (11.4)
- Mean AUC ± SD ([12]; 180 mg twice daily, week 4): 13,198 ± 4982 ng·h/mL
- Inhibition of platelet aggregation (IPA) ([12]; 180 mg vs 90 mg twice daily): dose-dependent increase
- Increase in ticagrelor exposure ([12]; 180 mg vs 90 mg twice daily, week 4): 277%
- AUC, mean ± standard deviation [3]: 3683 ± 753 ng·h/mL
- Increase in AUC ([4]; co-administration of ketoconazole): ≥ 5 fold
- AUC ([4]; human, plasma, oral, 90 mg): 3640 ng·h/mL
- Tmax ([4]; human, plasma, oral, 90 mg): 2 h
- half-life ([4]; human, plasma, oral, 90 mg): 7.1 h
- Cmax ([4]; human, plasma, 90 mg): 654 ng/mL
- Increase in AUC [4, 18]: 632%
- Increase in Cmax [4, 18]: 135%
- Half-life increased to (relative to ticagrelor alone) ([4]; presence of ketoconazole): approximately 362%
- AUC GLS mean ratio: point estimate (90% CI) [4, 19]: 7.32 (6.43–8.34)
- Cmax GLS mean ratio: point estimate (90% CI) [4, 19]: 2.35 (2.13–2.60)
- Metabolism by CYP3A (CYP3A [13]; human liver microsomes / in vitro): principally metabolized by CYP3A; also recorded: substrate
- Inhibition of CYP3A activity in vitro (CYP3A [13]): weak-to-moderate inhibitor
- Inhibition of CYP3A activity in vitro (CYP3A [13]; listed as ticagrelor): weak inhibitor
- P-glycoprotein substrate status (P-glycoprotein): substrate
- AEs ([14]; in vivo): five AEs
- Deaths or serious AEs ([14]; ketoconazole study): No deaths or serious AEs
